Consider 20 compounds from patent publication US12240862B2, “Inhibitors of peptidylarginine deiminases” (Gilead Sciences, Inc., priority 2020, dated 2025).

SMILES strings stand for the structures.

One may read the IC50 as the concentration that gives 50% inhibition.

The target in this test is T1, human PAD4 (Homo sapiens, UniProt Q9UM07).
T1 construct: human PAD4 (NM_012387), A2P663, was PCR amplified; His-SUMO (N, cleaved yes); made in house; host or cells: E. coli BL21(DE3)
T1 sequence (Q9UM07 2-663): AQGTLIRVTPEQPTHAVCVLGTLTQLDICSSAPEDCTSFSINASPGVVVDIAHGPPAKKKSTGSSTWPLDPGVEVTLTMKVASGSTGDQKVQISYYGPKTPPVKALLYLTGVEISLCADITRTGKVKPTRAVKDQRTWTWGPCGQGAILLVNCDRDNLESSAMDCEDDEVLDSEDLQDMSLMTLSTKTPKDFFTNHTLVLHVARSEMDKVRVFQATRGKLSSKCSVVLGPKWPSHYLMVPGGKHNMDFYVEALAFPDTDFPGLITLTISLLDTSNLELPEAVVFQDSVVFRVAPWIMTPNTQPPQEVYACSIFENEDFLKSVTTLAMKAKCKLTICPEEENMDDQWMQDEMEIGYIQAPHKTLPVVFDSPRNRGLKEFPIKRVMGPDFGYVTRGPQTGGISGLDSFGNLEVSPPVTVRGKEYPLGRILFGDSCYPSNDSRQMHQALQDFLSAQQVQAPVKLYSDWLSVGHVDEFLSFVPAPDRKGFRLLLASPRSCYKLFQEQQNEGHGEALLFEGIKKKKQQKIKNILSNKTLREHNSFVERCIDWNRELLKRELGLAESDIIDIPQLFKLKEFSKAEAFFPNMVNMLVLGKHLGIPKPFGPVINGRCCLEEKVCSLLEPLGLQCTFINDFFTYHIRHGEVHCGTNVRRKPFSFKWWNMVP
Nature of the test: In vitro PAD4 BAEE biochemical assay. The following applies: human PAD4, BAEE substrate; 5 nM PAD4, 2 mM calcium chloride, 3 mM BAEE; geometric mean of multiple experiments. In short, it runs like this: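 Tag-free recombinant hPAD4 (5 nM), 2 mM CaCl2, 3 mM BAEE, 50 mM MOPS pH 7.6, 2 mM DTT; 30 min compound preincubation, 2 h reaction, all 25 °C. EDTA quench; ammonia read via o-phthalaldehyde amine coupling, 1 h.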
In the case of `COc1cc(C(=O)N2C[C@H](N)CC[C@@H]2C)cc2nc(-c3cc4ccc(N(C(F)F)S(C)(=O)=O)nc4n3CC34CC(C3)C4)c(C)n12` [Example 496, ~{N}-[2-[7-[(2~{S}, 5~{R})-5-amino-2-methylpiperidine-1-carbonyl]-5-methoxy-3-methylimidazo[1,2-a]pyridin-2-yl]-1-(1-bicyclo [1.1.1]pentanylmethyl)pyrrolo [2,3-b]pyridin-6-yl]-~{N}-(difluoromethyl) methanesulfonamide], the IC50 was found to be 418 nM. Take `COc1cc(C(=O)N(C)C2CCCNC2)cc2nc(-c3cc4ccc(N(C(F)F)S(C)(=O)=O)nc4n3CC3CC3)c(C)n12` (centres unmarked) [Example 328, 2-[1-(cyclopropylmethyl)-6-[difluoromethyl (methylsulfonyl)amino]pyrrolo[2,3-b]pyridin-2-yl]-5-methoxy-~{N}, 3-dimethyl-~{N}-piperidin-3-ylimidazo [1,2-a]pyridine-7-carboxamide]: the IC50 came to 4880 nM. The value for `CCOC(=O)N(C)c1ccc2cc(-c3nc4cc(C(=O)N5[C@H]6CC[C@@H]5[C@H](N)C6)cc(OC)n4c3C)n(CC3CC3)c2n1` [Example 466, ethyl~{N}-[2-[7-[(1~{R},2~{R},4~{S})-2-amino-7-azabicyclo[2.2.1]heptane-7-carbonyl]-5-methoxy-3-methylimidazo [1,2-a]pyridin-2-yl]-1-(cyclopropylmethyl)pyrrolo [2,3-b]pyridin-6-yl]-~{N}-methylcarbamate] was 143 nM; that for `COc1cc(C(=O)N2[C@H]3CC[C@@H]2[C@H](N)C3)cc2nc(-c3cc4ccc(C(C)(C)O)nc4n3CC3CC3)c(C)n12` [Example 574, [(1~{R},2~{R},4~{S})-2-amino-7-azabicyclo [2.2.1]heptan-7-yl]-[2-[1-(cyclopropylmethyl)-6-(2-hydroxypropan-2-yl)pyrrolo [2,3-b]pyridin-2-yl]-5-methoxy-3-methylimidazo[1,2-a]pyridin-7-yl]methanone] was 110 nM. The value for `CCc1ccc2cc(-c3nc4cc(C(=O)N5CC6(CNCCO6)C5)cc(OC)n4c3C)n(CC3CC3)c2n1` [Example 595, [2-[1-(cyclopropylmethyl)-6-ethylpyrrolo[2,3-b]pyridin-2-yl]-5-methoxy-3-methylimidazo[1,2-a]pyridin-7-yl]-(5-oxa-2,8-diazaspiro[3.5]nonan-2-yl) methanone] was 31500 nM; that for `CCN(C(=O)OC)c1ccc2cc(-c3nc4cc(C(=O)N5[C@H]6CC[C@@H]5[C@H](N)C6)cc(OC)n4c3C)n(CC3CC3)c2n1` [Example 470, methyl~{N}-[2-[7-[(1~{R},2~{R},4~{S})-2-amino-7-azabicyclo[2.2.1]heptane-7-carbonyl]-5-methoxy-3-methylimidazo [1,2-a]pyridin-2-yl]-1-(cyclopropylmethyl)pyrrolo [2,3-b]pyridin-6-yl]-~{N}-ethylcarbamate] was 165 nM; that for `COc1cc(C(=O)N2C[C@H](N)C[C@@H]2CF)cc2nc(-c3cc4ccc(N(C(F)F)S(C)(=O)=O)nc4n3CC3CC3)c(C)n12` [Example 353, N-[2-[7-[(2R,4R)-4-amino-2-(fluoromethyl)pyrrolidine-1-carbonyl]-5-methoxy-3-methyl-imidazo[1,2-a]pyridin-2-yl]-1-(cyclopropylmethyl)pyrrolo [2,3-b]pyridin-6-yl]-N-(difluoromethyl) methanesulfonamide] was 26800 nM. The figure for `COc1cc(C(=O)N[C@@H]2CC[C@H](C)NC2)cc2nc(-c3cc4ccc(N(C(F)F)S(C)(=O)=O)nc4n3CC3CC3)c(C)n12` [Example 315, 2-[1-(cyclopropylmethyl)-6-[difluoromethyl (methylsulfonyl)amino]pyrrolo[2,3-b]pyridin-2-yl]-5-methoxy-3-methyl-~{N}-[(3~{R},6~{S})-6-methylpiperidin-3-yl]imidazo[1,2-a] pyridine-7-carboxamide] is 350 nM; for `COc1cc(C(=O)N2[C@H]3CC[C@@H]2[C@H](N)C3)cc2nc(-c3cc4ccc([C@@H](C)NC(=O)c5cnn(C)c5Cl)nc4n3CC3CC3)c(C)n12` [Example 75, ~{N}-[(1~{R})-1-[2-[7-[(1~{R},2~{R},4~{S})-2-amino-7-azabicyclo[2.2.1]heptane-7-carbonyl]-5-methoxy-3-methylimidazo [1,2-a]pyridin-2-yl]-1-(cyclopropylmethyl)pyrrolo [2,3-b]pyridin-6-yl]ethyl]-5-chloro-1-methylpyrazole-4-carboxamide] it is 39.2 nM. Regarding `COc1cc(C(=O)N2CCC[C@@H](N)C2)cc2nc(-c3cc4ccc(OC5CCN(C)C5=O)nc4n3CC3CC3)c(C)n12` (some centres unmarked) [Example 623, 3-[2-[7-[(3~{R})-3-aminopiperidine-1-carbonyl]-5-methoxy-3-methylimidazo[1,2-a]pyridin-2-yl]-1-(cyclopropylmethyl)pyrrolo [2,3-b]pyridin-6-yl]oxy-1-methylpyrrolidin-2-one], the IC50 came to 131 nM.

Consider `COc1cc(C(=O)N2[C@H]3CC[C@@H]2[C@H](N)C3)cc2nc(-c3cc4ccc([C@@H](C)NC(=O)C(C)(C)CO)nc4n3CC3CC3)c(C)n12` [Example 134], for which the IC50 turned out to be 66.5 nM. In the case of `COc1cc(C(=O)N2[C@H]3CC[C@@H]2[C@H](N)C3)cc2nc(-c3cc4ccc([C@@H](C)CC(=O)N5CCCC5)nc4n3CC3CC3)c(C)n12` [Example 523, (3~{S})-3-[2-[7-[(1~{R},2~{R},4~{S})-2-amino-7-azabicyclo[2.2.1]heptane-7-carbonyl]-5-methoxy-3-methylimidazo [1,2-a]pyridin-2-yl]-1-(cyclopropylmethyl)pyrrolo[2,3-b]pyridin-6-yl]-1-pyrrolidin-1-ylbutan-1-one], the IC50 is 59.1 nM. The figure for `COc1cc(C(=O)N2[C@H]3CC[C@@H]2[C@H](N)C3)cc2nc(-c3cc4ccc(-c5ccccc5C)nc4n3CC3CC3)c(C)n12` [Example 550, [(1~{R},2~{R},4~{S})-2-amino-7-azabicyclo [2.2.1]heptan-7-yl]-[2-[1-(cyclopropylmethyl)-6-(2-methylphenyl)pyrrolo [2,3-b]pyridin-2-yl]-5-methoxy-3-methylimidazo [1,2-a]pyridin-7-yl]methanone] is 1850 nM. On to `COc1cc(C(=O)N2CCC[C@@H](N)C2)cc2nc(-c3cc4ccc(CCC(=O)N(C)C)nc4n3CC3CC3)c(C)n12` [Example 532, 3-[2-[7-[(3~{R})-3-aminopiperidine-1-carbonyl]-5-methoxy-3-methylimidazo[1,2-a]pyridin-2-yl]-1-(cyclopropylmethyl)pyrrolo[2,3-b]pyridin-6-yl]-~{N},~{N}-dimethylpropanamide], for which the IC50 was determined as 1480 nM. The figure for `COc1cc(C(=O)N2C[C@H]3CCCN[C@H]3C2)cc2nc(-c3cc4ccc(N(C(F)F)S(C)(=O)=O)nc4n3CC3CC3)c(C)n12` [Example 336, ~{N}-[2-[7-[(4~{a}~{R},7~{a}~{R})-1,2,3,4,4~{a},5,7,7~{a}-octahydropyrrolo[3,4-b]pyridine-6-carbonyl]-5-methoxy-3-methylimidazo[1,2-a]pyridin-2-yl]-1-(cyclopropylmethyl)pyrrolo [2,3-b]pyridin-6-yl]-~{N}-(difluoromethyl) methanesulfonamide] is 484 nM; for `COc1cc(C(=O)N2[C@H]3CC[C@@H]2[C@H](N)C3)cc2nc(-c3cc4ccc(N5CCNCCS5(=O)=O)nc4n3CC3CC3)c(C)n12` [Example 450, [(1~{R},2~{R},4~{S})-2-amino-7-azabicyclo [2.2.1]heptan-7-yl]-[2-[1-(cyclopropylmethyl)-6-(1,1-dioxo-1,2,5-thiadiazepan-2-yl)pyrrolo[2,3-b]pyridin-2-yl]-5-methoxy-3-methylimidazo[1,2-a]pyridin-7-yl]methanone] it is 21.6 nM; for `COc1ccc2cc(-c3nc4cc(C(=O)N5CCC[C@@H](N)C5)cc(OC)n4c3C)n(CC3CC3)c2n1` [Example 629, [(3~{R})-3-aminopiperidin-1-yl]-[2-[1-(cyclopropylmethyl)-6-methoxypyrrolo[2,3-b]pyridin-2-yl]-5-methoxy-3-methylimidazo[1,2-a]pyridin-7-yl]methanone] it is 2270 nM.

On to `COc1cc(C(=O)N2[C@H]3CC[C@@H]2[C@H](N)C3)cc2nc(-c3cc4ccc([C@@H](C)NC(=O)C5(OC)CC5)nc4n3CC3CC3)c(C)n12` [Example 42, ~{N}-[(1~{R})-1-[2-[7-[(1~{R},2~{R},4~{S})-2-amino-7-azabicyclo [2.2.1]heptane-7-carbonyl]-5-methoxy-3-methylimidazo [1,2-a]pyridin-2-yl]-1-(cyclopropylmethyl)pyrrolo[2,3-b]pyridin-6-yl]ethyl]-1-methoxycyclopropane-1-carboxamide], for which the IC50 is 23.3 nM. For `COc1cc(C(=O)N2CC[C@H]3C[C@@]3(N)C2)cc2nc(-c3cc4ccc(N(C(F)F)S(C)(=O)=O)nc4n3CC3CC3)c(C)n12` [Example 362, ~{N}-[2-[7-[(1~{S}, 6~{S})-1-amino-3-azabicyclo[4.1.0]heptane-3-carbonyl]-5-methoxy-3-methylimidazo [1,2-a]pyridin-2-yl]-1-(cyclopropylmethyl)pyrrolo [2,3-b]pyridin-6-yl]-~{N}-(difluoromethyl) methanesulfonamide], the IC50 stood at 248 nM.

For the compound `COc1cc(C(=O)N2CCC[C@@H](N)[C@H]2C)cc2nc(-c3cc4ccc(N(C5CC5)S(C)(=O)=O)nc4n3CC3CC3)c(C)n12` [Example 479, ~{N}-[2-[7-[(2~{R}, 3~{R})-3-amino-2-methylpiperidine-1-carbonyl]-5-methoxy-3-methylimidazo[1,2-a]pyridin-2-yl]-1-(cyclopropylmethyl)pyrrolo [2,3-b]pyridin-6-yl]-~{N}-cyclopropylmethane-sulfonamide], the IC50 was found to be 181 nM.
